# From paper PMC8428568, “Discovery of re-purposed drugs that slow SARS-CoV-2 replication in human cells” (PLoS Pathogens, 2021)
# Counter-ions that a name gives are not always drawn. Like-named read-outs stand apart in the source and are kept apart here.
# Tests used:
# [1] = system: SARS-CoV-2-ΔOrf7a-NLuc virus; experiment: microbe, parasite or virus in culture; type: cell-based; conditions: for activity at 10 µM: Severe acute respiratory syndrome coronavirus 2, Vero, 72 h, read-out: Mean relative luminescence (n=4)
# [2] = system: SARS-CoV-2-ΔOrf7a-NLuc virus; experiment: microbe, parasite or virus in culture; type: cell-based
# recombinant NLuc = type: biochemical
# [3] = […], 1 = untreated, 0 = total inhibition
# [4] = Vero screen, […], relative luminescence
# [5] = HUH7 screen, […], relative luminescence
# [6] = recombinant NLuc activity relative to DMSO
# [7] = recombinant NLuc, first read column
# [8] = recombinant NLuc, fourth read column
# [9] = recombinant NLuc, third read column
# [10] = Vero cells, 10 μM, 1 = DMSO-treated infected cells
Compound,% activity in Vero 100PFU screen [1] [%],"activity at 10 µM [1, 3] [%]","Mean relative luminescence (n=4) [1, 4]","Mean relative luminescence (n=4) [2, 5]",Relative Recombinant NLUC (recombinant NLuc; [6]),Reads Counts per second (read 1) (recombinant NLuc; [7]) [Counts per second],Reads Counts per second (read 4) (recombinant NLuc; [8]) [Counts per second],Reads Counts per second (read 3) (recombinant NLuc; [9]) [Counts per second],PrestoBlue relative viability (Vero cells; [10]),PrestoBlue relative viability (Vero cells; Vero screen),PrestoBlue relative viability (HUH7 cells; HUH7 screen),"Mean relative luminescence (n=4) [1, 3]",activity at 10 µM [1] [%],Mean relative luminescence (n=4) [2],Reads Counts per second (read 1) (recombinant NLuc) [Counts per second],Reads Counts per second (read 3) (recombinant NLuc) [Counts per second],Reads Counts per second (read 4) (recombinant NLuc) [Counts per second],Relative Recombinant NLUC (recombinant NLuc),PrestoBlue relative viability (Vero cells; African green monkey),PrestoBlue relative viability (HUH7 cells; human)
"COc1cc2nccc(Oc3ccc(NC(=O)C4(C(=O)Nc5ccc(F)cc5)CC4)cc3)c2cc1OC [Cabozantinib malate (XL184), Cabozantinib malate]",12,10.3,0.1026,0.03412,0.8679,333265,328687,329153,0.5119,0.5119,0.8011,–,–,–,–,–,–,–,–,–
CN(C)CC/C=C1/c2ccccc2Sc2ccc(Cl)cc21.Cl [Chlorprothixene (hydrochloride)],4.28,–,0.0137,0.03176,0.9574,359664,361186,361391,0.8299,0.8299,0.7623,0.0137,–,–,–,–,–,–,–,–
Cc1cc(C2CCCCC2)n(O)c(=O)c1.NCCO [Ciclopirox ethanolamine],7,–,0.05436,0.04601,0.961,358391,361119,365653,0.5173,0.5173,0.5023,0.05436,–,–,–,–,–,–,–,–
COCCOC(=O)C1=C(C)NC(C)=C(C(=O)OC/C=C/c2ccccc2)C1c1cccc([N+](=O)[O-])c1 (stereo not shown) [Cilnidipine],0.696,0.039,0.0003902,0.00182,0.07521,28828,27971,28106,0.8017,0.8017,0.797,–,–,–,–,–,–,–,–,–
COc1cccc2c1C(=O)c1c(O)c3c(c(O)c1C2=O)C[C@@](O)(C(C)=O)C[C@@H]3O[C@H]1C[C@H](N)[C@H](O)[C@H](C)O1 [Daunorubicin HCl],5,2.1,0.02101,0.006058,0.8615,319222,328432,327409,0.6965,0.6965,0.5186,–,–,–,–,–,–,–,–,–
"CCc1cnn2c(NCc3ccc[n+]([O-])c3)cc(N3CCCC[C@H]3CCO)nc12 [Dinaciclib (SCH727965), Dinaciclib]",5,3.29,0.03292,0.06294,0.9134,345056,346073,342151,0.664,0.664,0.5934,–,–,–,–,–,–,–,–,–
CNCC[C@H](Oc1cccc2ccccc12)c1cccs1 [Duloxetine HCl],12,–,–,–,–,–,–,–,–,–,–,–,9.8,0.02845,297459,293652,301826,0.7894,0.9914,0.5048
CC(C)n1c(/C=C/C(O)CC(O)CC(=O)O)c(-c2ccc(F)cc2)c2ccccc21 (stereo not shown) [Fluvastatin Sodium],6,5.01,0.05005,0.05448,0.8994,344916,335899,339204,0.5553,0.5553,1.3017,–,–,–,–,–,–,–,–,–
"COC(=O)C1=C(C)NC(C)=C(C(=O)OC(C)C)C1c1cccc2nonc12 (stereo not shown) [Isradipine (Dynacirc), Isradipine]",6,3.92,0.03922,0.001355,0.04959,19176,18431,18561,0.6155,0.6155,0.6762,–,–,–,–,–,–,–,–,–
O=C(/C=C\n1cnc(-c2cc(C(F)(F)F)cc(C(F)(F)F)c2)n1)NNc1cnccn1 [KPT-330],3.73,0.545,0.005454,0.05859,1.022,378225,381493,389989,0.581,0.581,0.7102,–,–,–,–,–,–,–,–,–
"Cl.Cl.Cl.O[C@@H](COc1cccc2ncccc12)CN1CCN([C@@H]2c3ccccc3[C@@H]3[C@H](c4ccccc42)C3(F)F)CC1 [LY335979 (Zosuquidar 3HCL), Zosuquidar 3HCL]",3,–,0.008621,0.08231,0.9362,352212,351420,356783,0.5866,0.5866,0.6203,0.008621,–,–,–,–,–,–,–,–
CCOC(=O)C1=C(C)NC(C)=C(C(=O)OCC)C1c1ccccc1/C=C/C(=O)OC(C)(C)C [Lacidipine],1.49,0.0439,0.0004392,0.02662,0.1601,61246,59492,60310,0.86,0.86,0.9247,–,–,–,–,–,–,–,–,–
